Measurements as given in patent publication US11008325B2, “Inhibitors of cancer invasion, attachment, and/or metastasis” (VIRGINIA COMMONWEALTH UNIVERSITY, priority 2016, dated 2021).

Columns and labels:
EGFR = EGFR activation in PC cells; type: cell-based
Protocol: Considering the key role of MDA-9/IGF-1R interactions in STAT-3 activation, which has a decisive impact on PC progression, small molecule inhibitors that bind to MDA-9 were tested for their ability to specifically interrupt MDA-9/IGF-1R interactions thereby affecting STAT3 activation and PC invasion. […] In PC cells, PDZ1i-mediated downregulation of c-Src activation is partially IGF-1R dependent. Another tyrosine kinase, EGFR, which is also an interacting partner of MDA-9, has been reported to activate c-Src in PC.

[1] = test system: HBMEC barrier over GBM6 cells; experiment: HBMEC transwell blood brain barrier surrogate assay; type: in vitro ADME, human; conditions: 50 μM PDZ1i, 24 h, read out as GBM6 invasion
Protocol: FIG. 12. PDZ1i crosses the blood brain barrier (BBB). Primary human malignant glioma cells (GBM6) were seeded on the bottom well of a transwell chamber. In the top chamber, a monolayer of HBMEC cells separated GBM6 cells from media containing DMSO, 50 μM PDZ1i or Temozolomide (500 μM). After 24 h incubation in these conditions, invasion of GBM6 cells were analyzed by seeding in a trans-well Matrigel invasion assay and stained after 24 h. NB: PDZ1i treatment and invasion assay without HBMEC barrier. Error bars=f s.d.
A critical property of a potential therapeutic agent is its stability in the circulation and bioavailability in vivo. […] Additionally, when treating glioma pharmaceutically, the ability for a compound to cross the blood brain barrier (BBB) is paramount. […] Prior to in vivo efficacy studies, we evaluated the ability of the compound to cross the blood brain barrier using a target-based surrogate cellular assay. This method is preferred to direct in vivo measurements of compound concentration in the brain because of low sensitivity of the detection methods, and most importantly because of the presence of drug in various vascular spaces, i.e., the residual blood of the brain. […] After 24 h, we assessed the invasive ability of the treated GBM6 cells compared to pretreated controls. […]

B16 cells = experiment: B16 experimental lung metastasis; type: in vivo, C57BL/6 mice; conditions: repeated treatment I.P., 30 and 50 mg/kg, 6 injections
Protocol: FIG. 57. PDZ1in (113B7) treatment results in marked reduction of B16 experimental lung metastases. C57BU6 mice were inoculated I.V. with B16 cells ([…]) to generate experimental lung metastases. One day after I.V. injection, mice received 30 and 50 mg/kg b.w. PDZ1i I.P. 3× a week for the first two weeks (total 6 injections). After 21 days, mice were sacrificed and lungs were collected, fixed with formalin and examined for nodules. Representative lungs with tumor metastases are shown.
Preliminary studies were performed to determine if administering PDZ1ln (113B7) would affect experimental metastasis. B16, a highly aggressive metastatic mouse melanoma, was intravenously injected resulting in lung nodules within 3 weeks. […] This experiment confirms that treatment with PDZ1in targeting MDA-9/Syntenin can directly prevent formation of lung metastases in vivo.

IGF-1R and STAT3 = experiment: western blot after hIGFBP-2 stimulation; type: cell-based; conditions: dose- and time-dependent
Protocol: FIGS. 17A-17H. Effect of PDZ1i on invasion, MDA-9/IGF-R1 interaction and IGF-R1, STAT3 and SRC phosphorylation. FIG. 17A) Different cancer cells (25,000 cells/well) from various anatomic origins were pre-treated with either DMSO (vehicle) or PDZ1i (dose as indicated) and invasion ability was assayed using modified Boyden Chamber according to the manufacturer's instructions. Photomicrographs were taken at 10× magnification and quantification of the results of three independent experiments is provided in the graphs. The data presents mean±S.D. B) The designated cells were treated with DMSO or PDZ1i and invasion properties were determined using a modified Boyden Chamber assay (BD bioscience). RWPE-1 mda-9: mda-9 transiently overexpressing cell line. […] FIG. 17E) Cells were growth starved for 24 h and treated with either DMSO or PDZ1i (dose indicated in μM) for 6 h. Cells were treated with human recombinant IGFBP-2 (hIGFBP-2, 10 ng/ml) for 2 h, lysates were prepared and western blot analysis was conducted with specific antibodies. FIG. 17F) Cells were serum-starved for 24 h and treated with either DMSO or PDZ1i (20 μM) for 6 h. […] Cells were treated with human recombinant […] (hIGFBP-2, 1 ng/ml) for 2 h, cell lysates were prepared and analyzed by western blotting. […]

MMP-2 and MMP-9 = experiment: western blotting and gelatin zymography of conditioned media; type: cell-based; conditions: 50 μM, 24 h

Cc1cc(NC(=O)c2nc3[nH]c4c(c(=O)n3n2)CCC4)c(C)cc1NC(=O)CCc1nnc(-c2ccccc2)o1 [113B7, N-(2,5-dimethyl-4-(3-(5-phenyl-1,3,4-oxadiazol-2-yl)propanamido)phenyl)-8-oxo-5,6,7,8-tetrahydro-4H-cyclopenta[d][1,2,4]triazolo[1,5-a]pyrimidine-2-carboxamide]
EGFR activation (EGFR): did not have any effect | crossing of the HBMEC barrier (blood brain barrier surrogate) [1]: effectively crossed the HBMEC barrier | number of lung nodules (B16 cells): significantly reduced the number of lung nodules | IGF-1R and STAT3 activity (IGF-1R and STAT3): down regulates | MMP-2 and MMP-9 protein and activity level (MMP-2 and MMP-9): downregulates
